The structures appear in SMILES notation. Peptide text beside a SMILES is read from it. Where only a bound is given, the exact number is not on record here.

The first data set deals with T1, GC-C receptor (Homo sapiens, UniProt P25092).
T1 construct: endogenous in cells; host or cells: T-84 cells
T1 sequence (P25092 24-1073): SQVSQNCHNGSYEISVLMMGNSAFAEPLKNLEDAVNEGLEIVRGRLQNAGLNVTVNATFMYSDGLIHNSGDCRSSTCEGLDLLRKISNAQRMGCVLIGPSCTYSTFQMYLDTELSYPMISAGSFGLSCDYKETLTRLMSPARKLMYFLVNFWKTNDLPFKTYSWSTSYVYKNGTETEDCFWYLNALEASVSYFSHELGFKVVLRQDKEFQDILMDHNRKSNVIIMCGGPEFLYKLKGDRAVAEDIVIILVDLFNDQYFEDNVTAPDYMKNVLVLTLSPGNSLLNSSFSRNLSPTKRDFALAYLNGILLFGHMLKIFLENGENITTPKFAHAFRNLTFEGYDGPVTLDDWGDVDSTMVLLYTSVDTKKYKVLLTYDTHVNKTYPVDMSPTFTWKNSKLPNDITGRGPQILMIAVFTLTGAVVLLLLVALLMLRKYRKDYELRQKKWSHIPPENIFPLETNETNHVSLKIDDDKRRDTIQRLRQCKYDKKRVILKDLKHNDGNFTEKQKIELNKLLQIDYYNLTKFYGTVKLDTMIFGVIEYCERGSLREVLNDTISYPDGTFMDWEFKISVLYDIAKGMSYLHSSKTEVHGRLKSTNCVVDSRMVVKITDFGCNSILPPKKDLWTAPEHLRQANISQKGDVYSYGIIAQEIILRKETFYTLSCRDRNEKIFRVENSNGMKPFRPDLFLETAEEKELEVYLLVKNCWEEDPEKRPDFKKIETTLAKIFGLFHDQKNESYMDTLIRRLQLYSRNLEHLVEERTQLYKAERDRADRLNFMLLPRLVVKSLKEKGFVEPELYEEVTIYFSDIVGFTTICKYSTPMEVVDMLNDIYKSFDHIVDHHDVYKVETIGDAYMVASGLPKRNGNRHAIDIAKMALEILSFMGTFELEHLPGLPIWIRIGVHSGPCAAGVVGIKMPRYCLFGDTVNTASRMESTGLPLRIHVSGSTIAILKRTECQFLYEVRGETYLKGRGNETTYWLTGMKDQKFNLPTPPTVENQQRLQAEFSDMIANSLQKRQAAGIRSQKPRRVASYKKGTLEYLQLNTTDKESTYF
The data set is described as follows: GC-C receptor T-84 cell assay (toxicity, cGMP levels) of culture filtrates. The class given is cell-based. The settings on record: T84 cell assay, culture filtrate. As to the method:
T-84 cells were seeded and cultured in each well of a 24 well plate. After removing the Dulbecco's modified Eagle's medium (DMEM:F12 (1:1) Lonza Walkersville, Inc.), cells were washed 3 times with 0.5 mL DMEM. Cells were incubated with 0.25 mL DMEM containing 1 mM 3-isobutyl-1-methylxanthine (IBMX) for 10 min at 37° C. 0.1 mL of sample (culture filtrate) was added to each well and incubated for 60 min at 37° C. Following incubation, the reaction medium was aspirated, and the cells were lysed with […] HCl at room temperature for 20 min. The lysates were centrifuged at top speed for 10 min and the cGMP levels were measured in control- and agonist-stimulated cells with a direct cGMP enzyme immunoassay kit (Enzo Life Sciences, Inc.) according to the manufacturer's instructions.
The culture filtrate of each mutant was added to the T-84 cells in duplicate, and a serial dilution of culture filtrates with recombinantly expressed native ST was used to generate a standard curve.
Toxicity measured in culture filtrates is a product of intrinsic toxicity (toxicity per mol) and the concentration of the ST mutant. The same is true for antigenicity. […] Since we have no method for accurately measuring ST (mutant) concentrations in culture filtrates, we are not able to directly measure intrinsic toxicities and antigenicities for the ST mutants.
To circumvent this problem we measure toxicity and antigenicity for the ST mutants relative to native ST. This allows us to describe changes in toxicity and antigenicity in mutant culture filtrates. Next, we divide the change in antigenicity by the change in toxicity for each mutant. If the same culture filtrate has been used to measure toxicity and antigenicity this allows us to eliminate the of the concentration.
Turning to `CC(C)C[C@@H]1NC(=O)[C@H](CCC(=O)O)NC(=O)[C@@H]2CSSC[C@@H]3NC(=O)[C@H](C)NC(=O)[C@@H]4CCCN4C(=O)[C@H](C(C)C)NC(=O)[C@H](CSSC[C@H](NC(=O)[C@H](Cc4ccc(O)cc4)NC(=O)[C@H](CC(N)=O)NC(=O)[C@H](CO)NC(=O)[C@H](CO)NC(=O)[C@@H](N)CC(N)=O)C(=O)N2)NC(=O)[C@H](CSSC[C@@H](C(=O)N[C@@H](Cc2ccc(O)cc2)C(=O)O)NC(=O)CNC(=O)[C@H]([C@@H](C)O)NC3=O)NC1=O` [Mutant N12V] (HELM PEPTIDE1{N.S.S.N.Y.C.C.E.L.C.C.V.P.A.C.T.G.C.Y}$PEPTIDE1,PEPTIDE1,6:R3-11:R3|PEPTIDE1,PEPTIDE1,7:R3-15:R3|PEPTIDE1,PEPTIDE1,10:R3-18:R3$$$V2.0), the “toxicity relative to native STh” value turned out to be 0.01.

The data set is the same for the next values; noted with them: relative to native STh; culture filtrate; ^2 = no detectable toxicity, set to detection limit 0.0014.
Turning to `CC[C@H](C)[C@@H]1NC(=O)[C@@H]2CCCN2C(=O)[C@H](CC(N)=O)NC(=O)[C@@H]2CSSC[C@H](NC(=O)[C@H](Cc3ccc(O)cc3)NC(=O)[C@H](CC(N)=O)NC(=O)[C@H](CO)NC(=O)[C@H](CO)NC(=O)[C@@H](N)CC(N)=O)C(=O)N[C@H]3CSSC[C@H](NC1=O)C(=O)N[C@@H]([C@@H](C)O)C(=O)NCC(=O)N[C@H](C(=O)N[C@@H](Cc1ccc(O)cc1)C(=O)O)CSSC[C@H](NC(=O)[C@H](CC(C)C)NC(=O)[C@H](CCC(=O)O)NC3=O)C(=O)N2` [Mutant A14I] (HELM PEPTIDE1{N.S.S.N.Y.C.C.E.L.C.C.N.P.I.C.T.G.C.Y}$PEPTIDE1,PEPTIDE1,6:R3-11:R3|PEPTIDE1,PEPTIDE1,7:R3-15:R3|PEPTIDE1,PEPTIDE1,10:R3-18:R3$$$V2.0), the Toxicity was < 0.0014^2.

`CC(C)C[C@@H]1NC(=O)[C@H](CCCNC(=N)N)NC(=O)[C@@H]2CSSC[C@@H]3NC(=O)[C@H](C)NC(=O)[C@@H]4CCCN4C(=O)[C@H](CC(N)=O)NC(=O)[C@H](CSSC[C@H](NC(=O)[C@H](Cc4ccc(O)cc4)NC(=O)[C@H](CC(N)=O)NC(=O)[C@H](CO)NC(=O)[C@H](CO)NC(=O)[C@@H](N)CC(N)=O)C(=O)N2)NC(=O)[C@H](CSSC[C@@H](C(=O)N[C@@H](Cc2ccc(O)cc2)C(=O)O)NC(=O)CNC(=O)[C@H]([C@@H](C)O)NC3=O)NC1=O` [Mutant E08R] (HELM PEPTIDE1{N.S.S.N.Y.C.C.R.L.C.C.N.P.A.C.T.G.C.Y}$PEPTIDE1,PEPTIDE1,6:R3-11:R3|PEPTIDE1,PEPTIDE1,7:R3-15:R3|PEPTIDE1,PEPTIDE1,10:R3-18:R3$$$V2.0): the Toxicity was 0.0021.

For the compound `CC(C)C[C@@H]1NC(=O)[C@H](CCC(=O)O)NC(=O)[C@@H]2CSSC[C@@H]3NC(=O)[C@H](C)NC(=O)[C@@H]4CCCN4C(=O)[C@H](CC(N)=O)NC(=O)[C@H](CSSC[C@H](NC(=O)[C@H](Cc4ccc(O)cc4)NC(=O)[C@H](CC(N)=O)NC(=O)[C@H](CO)NC(=O)[C@H](CO)NC(=O)[C@@H](N)CC(N)=O)C(=O)N2)NC(=O)[C@H](CSSC[C@@H](C(=O)N[C@@H](Cc2ccc(O)cc2)C(=O)O)NC(=O)CNC(=O)[C@H](CCCNC(=N)N)NC3=O)NC1=O` [Mutant T16R] (HELM PEPTIDE1{N.S.S.N.Y.C.C.E.L.C.C.N.P.A.C.R.G.C.Y}$PEPTIDE1,PEPTIDE1,6:R3-11:R3|PEPTIDE1,PEPTIDE1,7:R3-15:R3|PEPTIDE1,PEPTIDE1,10:R3-18:R3$$$V2.0), the Toxicity is listed as 0.0111. The same measure, in the same setting: next, `CC(C)C[C@@H]1NC(=O)[C@H](CCC(=O)O)NC(=O)[C@@H]2CSSC[C@@H]3NC(=O)[C@H](C)NC(=O)[C@H](C)NC(=O)[C@H](CC(N)=O)NC(=O)[C@H](CSSC[C@H](NC(=O)[C@H](Cc4ccc(O)cc4)NC(=O)[C@H](CC(N)=O)NC(=O)[C@H](CO)NC(=O)[C@H](CO)NC(=O)[C@@H](N)CC(N)=O)C(=O)N2)NC(=O)[C@H](CSSC[C@@H](C(=O)N[C@@H](Cc2ccc(O)cc2)C(=O)O)NC(=O)CNC(=O)[C@H]([C@@H](C)O)NC3=O)NC1=O` [Mutant P13A] (HELM PEPTIDE1{N.S.S.N.Y.C.C.E.L.C.C.N.A.A.C.T.G.C.Y}$PEPTIDE1,PEPTIDE1,6:R3-11:R3|PEPTIDE1,PEPTIDE1,7:R3-15:R3|PEPTIDE1,PEPTIDE1,10:R3-18:R3$$$V2.0): < 0.0014^2. Consider `CC(C)C[C@@H]1NC(=O)[C@H](CCC(=O)O)NC(=O)[C@@H]2CSSC[C@@H]3NC(=O)[C@H](Cc4c[nH]cn4)NC(=O)[C@@H]4CCCN4C(=O)[C@H](CC(N)=O)NC(=O)[C@H](CSSC[C@H](NC(=O)[C@H](Cc4ccc(O)cc4)NC(=O)[C@H](CC(N)=O)NC(=O)[C@H](CO)NC(=O)[C@H](CO)NC(=O)[C@@H](N)CC(N)=O)C(=O)N2)NC(=O)[C@H](CSSC[C@@H](C(=O)N[C@@H](Cc2ccc(O)cc2)C(=O)O)NC(=O)CNC(=O)[C@H]([C@@H](C)O)NC3=O)NC1=O` [Mutant A14H] (HELM PEPTIDE1{N.S.S.N.Y.C.C.E.L.C.C.N.P.H.C.T.G.C.Y}$PEPTIDE1,PEPTIDE1,6:R3-11:R3|PEPTIDE1,PEPTIDE1,7:R3-15:R3|PEPTIDE1,PEPTIDE1,10:R3-18:R3$$$V2.0), for which the Toxicity is reported as < 0.0014^2. `CSCC[C@H](N)C(=O)N[C@@H](CO)C(=O)N[C@@H](CO)C(=O)N[C@@H](CC(N)=O)C(=O)N[C@@H](Cc1ccc(O)cc1)C(=O)N[C@H]1CSSC[C@@H]2NC(=O)[C@@H]3CSSC[C@@H](C(=O)N[C@@H](Cc4ccc(O)cc4)C(=O)O)NC(=O)CNC(=O)[C@H]([C@@H](C)O)NC(=O)[C@H](CSSC[C@H](NC1=O)C(=O)N[C@@H](CCC(=O)O)C(=O)N[C@@H](CC(C)C)C(=O)N3)NC(=O)[C@H](C)NC(=O)[C@@H]1CCCN1C(=O)[C@H](CC(N)=O)NC2=O` [Mutant N01M] (HELM PEPTIDE1{M.S.S.N.Y.C.C.E.L.C.C.N.P.A.C.T.G.C.Y}$PEPTIDE1,PEPTIDE1,6:R3-11:R3|PEPTIDE1,PEPTIDE1,7:R3-15:R3|PEPTIDE1,PEPTIDE1,10:R3-18:R3$$$V2.0): the Toxicity amounted to 1.8910. The same measure, in the same setting: then `CC(C)C[C@@H]1NC(=O)[C@H](CCC(=O)O)NC(=O)[C@@H]2CSSC[C@@H]3NC(=O)[C@H](C)NC(=O)[C@@H]4CCCN4C(=O)[C@H](CC(N)=O)NC(=O)[C@H](CSSC[C@H](NC(=O)[C@H](Cc4ccc(O)cc4)NC(=O)[C@H](CC(N)=O)NC(=O)[C@H](CO)NC(=O)[C@H](CO)NC(=O)[C@@H](N)CC(N)=O)C(=O)N2)NC(=O)[C@H](CSSC[C@@H](C(=O)N[C@@H](Cc2ccc(O)cc2)C(=O)O)NC(=O)[C@H](Cc2ccc(O)cc2)NC(=O)[C@H]([C@@H](C)O)NC3=O)NC1=O` [Mutant G17Y] (HELM PEPTIDE1{N.S.S.N.Y.C.C.E.L.C.C.N.P.A.C.T.Y.C.Y}$PEPTIDE1,PEPTIDE1,6:R3-11:R3|PEPTIDE1,PEPTIDE1,7:R3-15:R3|PEPTIDE1,PEPTIDE1,10:R3-18:R3$$$V2.0), with 0.0234; and `CC(C)C[C@@H]1NC(=O)[C@H](CCC(=O)O)NC(=O)[C@@H]2CSSC[C@@H]3NC(=O)[C@H](CCC(N)=O)NC(=O)[C@@H]4CCCN4C(=O)[C@H](CC(N)=O)NC(=O)[C@H](CSSC[C@H](NC(=O)[C@H](Cc4ccc(O)cc4)NC(=O)[C@H](CC(N)=O)NC(=O)[C@H](CO)NC(=O)[C@H](CO)NC(=O)[C@@H](N)CC(N)=O)C(=O)N2)NC(=O)[C@H](CSSC[C@@H](C(=O)N[C@@H](Cc2ccc(O)cc2)C(=O)O)NC(=O)CNC(=O)[C@H]([C@@H](C)O)NC3=O)NC1=O` [Mutant A14Q] (HELM PEPTIDE1{N.S.S.N.Y.C.C.E.L.C.C.N.P.Q.C.T.G.C.Y}$PEPTIDE1,PEPTIDE1,6:R3-11:R3|PEPTIDE1,PEPTIDE1,7:R3-15:R3|PEPTIDE1,PEPTIDE1,10:R3-18:R3$$$V2.0), with < 0.0014^2; and `CC(C)C[C@@H]1NC(=O)[C@H](CCC(=O)O)NC(=O)[C@@H]2CSSC[C@@H]3NC(=O)[C@H]([C@@H](C)O)NC(=O)[C@@H]4CCCN4C(=O)[C@H](CC(N)=O)NC(=O)[C@H](CSSC[C@H](NC(=O)[C@H](Cc4ccc(O)cc4)NC(=O)[C@H](CC(N)=O)NC(=O)[C@H](CO)NC(=O)[C@H](CO)NC(=O)[C@@H](N)CC(N)=O)C(=O)N2)NC(=O)[C@H](CSSC[C@@H](C(=O)N[C@@H](Cc2ccc(O)cc2)C(=O)O)NC(=O)CNC(=O)[C@H]([C@@H](C)O)NC3=O)NC1=O` [Mutant A14T] (HELM PEPTIDE1{N.S.S.N.Y.C.C.E.L.C.C.N.P.T.C.T.G.C.Y}$PEPTIDE1,PEPTIDE1,6:R3-11:R3|PEPTIDE1,PEPTIDE1,7:R3-15:R3|PEPTIDE1,PEPTIDE1,10:R3-18:R3$$$V2.0), with < 0.0014^2. Take `CC(C)C[C@@H]1NC(=O)[C@H](CCC(=O)O)NC(=O)[C@@H]2CSSC[C@@H]3NC(=O)[C@H](CCC(=O)O)NC(=O)[C@@H]4CCCN4C(=O)[C@H](CC(N)=O)NC(=O)[C@H](CSSC[C@H](NC(=O)[C@H](Cc4ccc(O)cc4)NC(=O)[C@H](CC(N)=O)NC(=O)[C@H](CO)NC(=O)[C@H](CO)NC(=O)[C@@H](N)CC(N)=O)C(=O)N2)NC(=O)[C@H](CSSC[C@@H](C(=O)N[C@@H](Cc2ccc(O)cc2)C(=O)O)NC(=O)CNC(=O)[C@H]([C@@H](C)O)NC3=O)NC1=O` [Mutant A14E] (HELM PEPTIDE1{N.S.S.N.Y.C.C.E.L.C.C.N.P.E.C.T.G.C.Y}$PEPTIDE1,PEPTIDE1,6:R3-11:R3|PEPTIDE1,PEPTIDE1,7:R3-15:R3|PEPTIDE1,PEPTIDE1,10:R3-18:R3$$$V2.0): the Toxicity is < 0.0014^2.

Values taken from patent US10166279B2, “Vaccine” (Bergen Teknologioverføring AS, priority 2013, dated 2019).
